# Key:
# [1] = system: HBV DNA; assay: Antiviral activity: inhibition of HBV DNA in supernatant of HepG 2.2.15 cells (dot blot hybridization); assay type: cell-based; conditions: Hepatitis B virus, HepG2.2.15, 192 h, 8 days incubation, HB-specific DNA in supernatant, read-out: IC50 (inhibitory effect on HBV DNA)
# Experimental: The antiviral effect of the compound of the present invention is determined according to the methods described by Sells, et al (M. A. Sells, M. L. Chen, G. Proc. Natl. Acad. Sci. 1987, 84, 1005-1009) and Korba, et al (B. E. Korba, J. L. Gerin Antiviral Research 1992, 19, 55-70).
# (§1) The antiviral test was carried out in a 96-cell microtiter plate. The first column of the plate only contained a culture medium and HepG 2.2.15 cells, as a blank control.
# (§2) First, a stock solution ([…]) of a test compound was dissolved in DMSO, and further diluted with a culture medium for growth of HepG 2.2.15 cells. Usually, the compound of the present invention was transferred by suction at a test concentration of 100 μg/ml (the first test concentration) to each cell of the second column of the microtiter plate, and then diluted with the culture medium for growth plus 2% fetal bovine serum (25 μL), by 2 times once, up to 2^10 times at the maximum.
# (§3) Then, 225 μL of a suspension of HepG 2.2.15 cells in the culture medium for growth plus 2% fetal bovine serum (5×10^4 cells/ml) was added to each cell of the 96-cell microtiter plate.
# (§4) The test mixture was incubated under the conditions of 37° C., 5% CO2 for 4 days. Then, the supernatant was removed by suction, and to each cell 225 μL of a new-prepared culture medium for growth was added. Again, the compound of the present invention was added with a solution of 25 μL. The obtained mixture was further incubated for 4 days.
# Thereafter, the supernatant was collected, and sucked in vacuum to a 96-cell dot blot chamber covered by nylon film (used in accordance with the instructions for use provided by the manufacturer).
# Determination of Antiviral Activity
# After the supernatant was transferred onto the nylon film of the dot blot device (see the contents hereinabove), the supernatant of HepG 2.2.15 cells was denaturated (1.5 M NaCl/0.5 M NaOH), neutralized (3 M NaCl/0.5 M Tris. HCl, pH 7.5) and washed (2×SSC). Then, the filter film was kept at 120° C. for 2-4 hours, whereby DNA was baked on the filter film.
# Usually, viral DNA of HepG 2.2.15 cells treated on the nylon film was detected by using a non-radioactive digoxigenin labeled HB-specific DNA probe. Wherein, each time the probe was labeled with digoxigenin, purified and hybridized according to the directions for use given by the manufacturer.
# Briefly, pre-hybridization and hybridization were conducted with 5×SSC, 1× blocking agent, 0.1% N-lauroyl sarcosine, 0.02% SDS and 100 μg sperm DNA of black carp. After pre-hybridization at 60° C. for 30 min, a specific hybridization (at 60° C. for 14 hr) was conducted with 20-40 ng/ml digoxigenin labeled denaturalized HBV specific DNA. Then, the film was washed, followed by HBV DNA detection with digoxigenin antibody.
# The immunology detection of digoxigenin labeled DNA was conducted according to the directions for use given by the manufacturer.
# Briefly speaking, the film was washed and pre-hybridized with a blocking agent (in accordance with the directions for use given by the manufacturer), and then hybridized with an anti-DIG antibody that had been previously coupled onto an alkaline phosphatase for 30 min. After washing, an alkaline phosphatase substrate CSPD was added, and cultured together with the filter for 5 min, and then wrapped in a plastic film, followed by further culturing at 37° C. for 15 min. The filter was exposed to X-ray, and the chemical luminous signal (culturing for 10 min to 2 hr according to the signal strength) of HB-specific DNA on the film was detected, whereby a half inhibitory concentration (IC50) was calculated.
# The half inhibitory concentration (IC50) refers to the concentration of the compound of the present invention which reduces the HB-specific band by 50% as compared with the untreated sample.
# [2] = system: HepG 2.2.15 cells; assay: Cytotoxicity in HepG 2.2.15 cells (cell morphology under microscope after 8 days, Reed&Muench); assay type: cell-based; conditions: pathological change of cells after 8 days
# Experimental: as §1, §2, §3, §4
# Prior to collection of the supernatant for determination of the antiviral effect, the change in cytotoxicity of HepG 2.2.15 cells was investigated by using optical microscopic technique or biochemical detection method (e.g., Alamar Blue staining or Trypan Blue staining).
# Determination of Cytotoxicity
# The substance-induced change in cytotoxicity in HepG 2.2.15 cells or in inhibition of the cells could be determined by using, e.g., optical microscopic technique, and expressed by the change of cell morphology. Such substance-induced changes, e.g., cell lysis, cavity formation or change in cell morphology, in HepG 2.2.15 cells were apparent as compared to the untreated cells.
# Taking the observed pathological change of cells as index, the pathological change of cells was observed under microscope after 8 days, a complete destroy being indicated as 4; 75% being indicated as 3; 50% being indicated as 2; 25% being indicated as 1; and no pathological change being indicated as 0. The average extents of pathological change of cells and the inhibition percentages at various concentrations were calculated. According to Reed&Muench method, a half toxic concentration (TC50) and a maximum non-toxic concentration (TC0) were calculated.
# TC50 refers to the concentration of the compound of the present invention when 50% of cells have a similar morphology to the corresponding cells as a control.
melting point,Compound,IC50 [1],TD50 [2]
213 to 216 °C,CCOC(=O)C1=C(C)NC(c2cscn2)=NC1c1ccc(O)cc1 (centres unmarked),,
105 to 108 °C,CCOC(=O)C1=C(C)NC(c2cscn2)=NC1c1cccc(Cl)c1 (centres unmarked),,
126 to 128 °C,CCOC(=O)C1=C(C)NC(c2cscn2)=NC1c1ccccc1F (centres unmarked),,
123 to 125 °C,CCOC(=O)C1=C(C)NC(c2csc(C)n2)=NC1c1ccc(F)cc1Cl (centres unmarked),,
175 to 178 °C,CCOC(=O)C1=C(C)NC(c2csc(C)n2)=NC1c1cccc(O)c1 (centres unmarked),,
208 to 210 °C,CCOC(=O)C1=C(C)NC(c2csc(C)n2)=NC1c1ccc(O)cc1 (centres unmarked),,
143 to 144 °C,CCOC(=O)C1=C(C)NC(c2csc(C)n2)=NC1c1cccc(Cl)c1 (centres unmarked),,
127 to 130 °C,CCOC(=O)C1=C(C)N(C(C)=O)C(c2csc(C)n2)=NC1c1cccc(F)c1 (centres unmarked),,
118 to 120 °C,CCOC(=O)C1=C(C)NC(c2cscn2)=NC1c1cccc(F)c1 (centres unmarked),,
140 to 142 °C,CCOC(=O)C1=C(C)N(C(C)=O)C(c2csc(C)n2)=NC1c1ccc(F)cc1 (centres unmarked),,
113 to 114 °C,CCOC(=O)C1=C(C)N(C(C)=O)C(c2csc(C)n2)=NC1c1cccc(C)c1 (centres unmarked),,
187 to 188 °C,CCOC(=O)C1=C(C)N(C(C)=O)C(c2csc(C)n2)=NC1c1ccc(C)cc1 (centres unmarked),,
114 to 116 °C,CCOC(=O)C1=C(C)N(C(C)=O)C(c2csc(C)n2)=NC1c1cccc(OC)c1 (centres unmarked),,
138 to 140 °C,CCOC(=O)C1=C(C)N(C(C)=O)C(c2csc(C)n2)=NC1c1ccc(OC)cc1 (centres unmarked),,
140 to 142 °C,CCOC(=O)C1=C(C)N(C(C)=O)C(c2csc(C)n2)=NC1c1ccccc1 (centres unmarked),,
169 to 171 °C,CCOC(=O)C1=C(C)N(C(C)=O)C(c2csc(C)n2)=NC1c1ccc(Cl)cc1 (centres unmarked),,
118 to 120 °C,CCOC(=O)C1=C(C)NC(c2cscn2)=NC1c1ccc(F)cc1 (centres unmarked),,
95 to 110 °C,CCOC(=O)C1=C(C)NC(c2csc(N)n2)=NC1c1ccc(F)cc1Cl (centres unmarked),,

melting point,Compound,IC50 [1],TD50 [2]
149 to 152 °C,CCOC(=O)C1=C(C)NC(c2ncsc2Cl)=NC1c1ccc(F)cc1Cl (centres unmarked),,
98 to 100 °C,COC(=O)C1=C(C)NC(c2ncsc2Cl)=NC1c1ccc(F)cc1Cl (centres unmarked),,
118 to 122 °C,COC(=O)C1=C(C)NC(c2ncsc2Cl)=NC1c1ccc(F)cc1 (centres unmarked),,
133 to 134 °C,CCOC(=O)C1=C(C)NC(c2cscn2)=NC1c1cccc(C)c1 (centres unmarked),,
107 to 111 °C,CCOC(=O)C1=C(C)NC(c2cnc(C)s2)=NC1c1ccc(F)cc1Cl (centres unmarked),,
159 to 162 °C,CCOC(=O)C1=C(C)NC(c2cnc(Cl)s2)=NC1c1ccc(F)cc1Cl (centres unmarked),,
> 230 °C,COC(=O)C1=C(C)NC(c2cnc(Cl)s2)=NC1c1ccc(F)cc1Cl (centres unmarked),,
175 to 178 °C,COC(=O)C1=C(C)NC(c2cnc(Cl)s2)=NC1c1ccc(F)cc1 (centres unmarked),,
157 to 162 °C,CCOC(=O)C1=C(C)NC(c2ncc[nH]2)=NC1c1ccc(F)cc1Cl (centres unmarked),,
114 to 117 °C,CCOC(=O)C1=C(C)NC(c2nccn2Cc2ccccc2)=NC1c1ccc(F)cc1Cl (centres unmarked),,
124 to 127 °C,CCOC(=O)C1=C(C)NC(c2nccn2C)=NC1c1ccccc1Cl (centres unmarked),,
121 to 125 °C,CCOC(=O)C1=C(C)NC(c2ncc[nH]2)=NC1c1ccccc1Cl (centres unmarked),,
155 to 158 °C,CC1=C(C(=O)OC(C)C)C(c2ccc(F)cc2Cl)N=C(c2c(F)cccc2F)N1 (centres unmarked),,
140 to 142 °C,CCOC(=O)C1=C(C)NC(c2cscn2)=NC1c1cccc(OC)c1 (centres unmarked),,
130 to 131 °C,CCOC(=O)C1=C(C)N(C(C)=O)C(c2cscn2)=NC1c1cccc(OC)c1 (centres unmarked),,
180 to 183 °C,CCOC(=O)C1=C(C)NC(c2cscn2)=NC1c1cccc(O)c1 (centres unmarked),,
,"COC(=O)C1=C(C)NC(c2csc(C)n2)=NC1c1ccc(F)cc1Cl (centres unmarked) [Example 29, methyl 2-(2-methylthiazol-4-yl)-4-(2-chloro-4-fluorophenyl)-6-methyl-1,4-dihydro-pyrimidin-5-carboxylate]",8.42 µM,56.34 µM
,"CCOC(=O)C1=C(C)NC(c2c(F)cc(F)cc2F)=N[C@H]1c1ccc(F)cc1Cl [Example 62, ethyl 4-R-(2-chloro-4-fluorophenyl)-2-(2,4,6-trifluorophenyl)-6-methyl-1,4-dihydro-pyrimidin-5-carboxylate]",2.01 µM,117.23 µM

Compound,melting point,IC50 [1],TD50 [2]
"CCOC(=O)C1=C(C)NC(c2cscn2)=NC1c1ccc(F)cc1Cl (centres unmarked) [Example 1, ethyl 2-(thiazol-4-yl)-4-(2-chloro-4-fluorophenyl)-6-methyl-1,4-dihydro-pyrimidin-5-carboxylate]",140 to 142 °C,3.35 µM,50.59 µM
"CCOC(=O)C1=C(C)NC(c2csc(Cl)n2)=NC1c1ccc(F)cc1Cl (centres unmarked) [Example 33, ethyl 2-(2-chlorothiazol-4-yl)-4-(2-chloro-4-fluorophenyl)-6-methyl-1,4-dihydro-pyrimidin-5-carboxylate]",141 to 143 °C,0.87 µM,7.17 µM
"COC(=O)C1=C(C)NC(c2csc(Cl)n2)=NC1c1ccc(F)cc1Cl (centres unmarked) [Example 34, methyl 2-(2-chlorothiazol-4-yl)-4-(2-chloro-4-fluorophenyl)-6-methyl-1,4-dihydro-pyrimidin-5-carboxylate]",160 to 162 °C,2.08 µM,12.35 µM
"COC(=O)C1=C(C)NC(c2scnc2C)=NC1c1ccc(F)cc1Cl (centres unmarked) [Example 37, methyl 2-(4-methylthiazol-5-yl)-4-(2-chloro-4-fluorophenyl)-6-methyl-1,4-dihydro-pyrimidin-5-carboxylate]",145 to 147 °C,14.6 µM,101.42 µM
"CCOC(=O)C1=C(C)NC(c2scnc2C)=NC1c1ccc(F)cc1Cl (centres unmarked) [Example 38, ethyl 2-(4-methylthiazol-5-yl)-4-(2-chloro-4-fluorophenyl)-6-methyl-1,4-dihydro-pyrimidin-5-carboxylate]",134 to 139 °C,2.22 µM,54.33 µM
"COC(=O)C1=C(C)NC(c2sc(C)nc2C)=NC1c1ccc(F)cc1Cl (centres unmarked) [Example 39, methyl 2-(2,4-dimethylthiazol-5-yl)-4-(2-chloro-4-fluorophenyl)-6-methyl-1,4-dihydro-pyrimidin-5-carboxylate]",116 to 118 °C,3.2 µM,165.90 µM
"CCOC(=O)C1=C(C)NC(c2sc(C)nc2C)=NC1c1ccc(F)cc1Cl (centres unmarked) [Example 40, ethyl 2-(2,4-dimethylthiazol-5-yl)-4-(2-chloro-4-fluorophenyl)-6-methyl-1,4-dihydro-pyrimidin-5-carboxylate]",117 to 119 °C,2.59 µM,157.42 µM

# Source: patent publication US8168642B2, “Dihydropyrimidine compounds and their uses in preparation of medicaments for treating and preventing antiviral diseases” (Beijing Molecule Science and Technology Co., Ltd., priority 2006, dated 2012)
